# Laboratory results published in patent EP0255256A2, “Antibiotics produced by actinomadura parvosata” (SMITHKLINE BECKMAN CORPORATION, priority 1986, dated 1988).
# Columns and labels:
# Staph. aureus 209P [1] = test: MIC, standard microtiter assay; assay type: cell-based; settings: Staphylococcus aureus; Staph. aureus 209P; Table VIII; read-out: MIC
# Procedure: (§1) The in vitro minimal inhibitory concentration (MIC) of the AAJ-271 complex and its factors, and vancomycin were determined for a number of microorganisms using the standard microtite'r assay procedures. The results are shown in the following tables, each of which represents a different production run of the complex.
# (§2) The in vitro minimal inhibitory concentration (MIC) and the in vitro minimal bactericidal concentration (MBC) of the AAJ-271 aglycones, pseudo-aglycone and vancomycin were determined for a number of microorganisms using the standard microtiter assay procedures.
# Staph. aureus 2620 [2] = test: MIC, standard microtiter assay; assay type: cell-based; settings: Staphylococcus aureus; Staph. aureus 2620; Table VIII; read-out: MIC
# Procedure: as §1, §2
# Staph. aureus 675 [3] = test: MIC, standard microtiter assay; assay type: cell-based; settings: Staphylococcus aureus; Staph. aureus 675; Table VIII; read-out: MIC
# Procedure: as §1, §2
# Staph. aureus 910 [4] = test: MIC, standard microtiter assay; assay type: cell-based; settings: Staphylococcus aureus; Staph. aureus 910; Table VIII; read-out: MIC
# Procedure: as §1, §2
# Staph. aureus HH127 [5] = test: MIC, standard microtiter assay; assay type: cell-based; settings: Staphylococcus aureus; Staph. aureus HH127; Table VIII; read-out: MIC
# Procedure: as §1, §2
# Staph. epidermidis 2256 [6] = test: MIC, standard microtiter assay; assay type: cell-based; settings: Staphylococcus epidermidis; Staph. epidermidis 2256; Table VIII; read-out: MIC
# Procedure: as §1, §2
# Staph. epidermidis 2265 [7] = test: MIC, standard microtiter assay; assay type: cell-based; settings: Staphylococcus epidermidis; Staph. epidermidis 2265; Table VIII; read-out: MIC
# Procedure: as §1, §2
# Staph. epidermidis 2479 [8] = test: MIC, standard microtiter assay; assay type: cell-based; settings: Staphylococcus epidermidis; Staph. epidermidis 2479; Table VIII; read-out: MIC
# Procedure: as §1, §2
# Staph. epidermidis 2588 [9] = test: MIC, standard microtiter assay; assay type: cell-based; settings: Staphylococcus epidermidis; Staph. epidermidis 2588; Table VIII; read-out: MIC
# Procedure: as §1, §2
# Staph. haemolyticus 651 [10] = test: MIC, standard microtiter assay; assay type: cell-based; settings: Staphylococcus haemolyticus; Staph. haemolyticus 651; Table VIII; read-out: MIC
# Procedure: as §1, §2
# [11] = tested on: Staph. saprophyticus 2657; test: MIC, standard microtiter assay; assay type: cell-based; settings: Staphylococcus saprophyticus; Staph. saprophyticus 2657; Table VIII; read-out: MIC
# Procedure: as §1, §2
# Strep. faecalis 34358 [12] = test: MIC, standard microtiter assay; assay type: cell-based; settings: Enterococcus faecalis; Strep. faecalis 34358; Table VIII; read-out: MIC
# Procedure: as §1, §2
# Strep. faecalis 657 [13] = test: MIC, standard microtiter assay; assay type: cell-based; settings: Enterococcus faecalis; Strep. faecalis 657; Table VIII; read-out: MIC
# Procedure: as §1, §2
# [14] = tested on: Strep. pyogenes (Group A); test: MIC, standard microtiter assay; assay type: cell-based; settings: Streptococcus pyogenes; Strep. pyogenes (Group A); Table VIII; read-out: MIC
# Procedure: as §1, §2
# [15] = tested on: Staph. aureus 209P vancomycin resistant mutant; test: MIC, standard microtiter assay; assay type: cell-based; settings: Staphylococcus aureus, read-out: MIC in μg/ml
# Procedure: as §2
# Staph. epidermidis 2261 [16] = test: MIC, standard microtiter assay; assay type: cell-based; settings: Staphylococcus epidermidis; Staph. epidermidis 2261; Table VIII; read-out: MIC
# Procedure: as §2
# Staph. aureus 2620 [17] = test: MBC, standard assay procedures; assay type: cell-based; settings: Staphylococcus aureus; Staph. aureus 2620; Table VIII; read-out: MBC
# Procedure: (§3) The in vitro minimal bactericidal concentration (MBC) of the AAJ-271 C, C2 and C3 factors and vancomycin were determined for a number of microorganisms using standard assay procedures.
# as §2
# Staph. aureus 675 [18] = test: MBC, standard assay procedures; assay type: cell-based; settings: Staphylococcus aureus; Staph. aureus 675; Table VIII; read-out: MBC
# Procedure: as §3, §2
# Staph. aureus HH127 [19] = test: MBC, standard assay procedures; assay type: cell-based; settings: Staphylococcus aureus; Staph. aureus HH127; Table VIII; read-out: MBC
# Procedure: as §3, §2
# Staph. epidermidis 2265 [20] = test: MBC, standard assay procedures; assay type: cell-based; settings: Staphylococcus epidermidis; Staph. epidermidis 2265; Table VIII; read-out: MBC
# Procedure: as §3, §2
# Staph. epidermidis 2479 [21] = test: MBC, standard assay procedures; assay type: cell-based; settings: Staphylococcus epidermidis; Staph. epidermidis 2479; Table VIII; read-out: MBC
# Procedure: as §3, §2
# Staph. haemolyticus 651 [22] = test: MBC, standard assay procedures; assay type: cell-based; settings: Staphylococcus haemolyticus; Staph. haemolyticus 651; Table VIII; read-out: MBC
# Procedure: as §3, §2
# Strep. faecalis 34358 [23] = test: MBC, standard assay procedures; assay type: cell-based; settings: Enterococcus faecalis; Strep. faecalis 34358; Table VIII; read-out: MBC
# Procedure: as §3, §2
# Strep. faecalis 657 [24] = test: MBC, standard assay procedures; assay type: cell-based; settings: Enterococcus faecalis; Strep. faecalis 657; Table VIII; read-out: MBC
# Procedure: as §3, §2
# [25] = tested on: Staph. aureus 209P vancomycin resistant mutant; test: MBC, standard assay procedures; assay type: cell-based; settings: Staphylococcus aureus, read-out: MBC in μg/ml
# Procedure: as §2
# Staph. aureus 209P [26] = test: MBC, standard assay procedures; assay type: cell-based; settings: Staphylococcus aureus; Staph. aureus 209P; Table VIII; read-out: MBC
# Procedure: as §2
# Staph. aureus 910 [27] = test: MBC, standard assay procedures; assay type: cell-based; settings: Staphylococcus aureus; Staph. aureus 910; Table VIII; read-out: MBC
# Procedure: as §2
# Staph. epidermidis 2256 [28] = test: MBC, standard assay procedures; assay type: cell-based; settings: Staphylococcus epidermidis; Staph. epidermidis 2256; Table VIII; read-out: MBC
# Procedure: as §2
# Staph. epidermidis 2261 [29] = test: MBC, standard assay procedures; assay type: cell-based; settings: Staphylococcus epidermidis; Staph. epidermidis 2261; Table VIII; read-out: MBC
# Procedure: as §2
# Staph. epidermidis 2588 [30] = test: MBC, standard assay procedures; assay type: cell-based; settings: Staphylococcus epidermidis; Staph. epidermidis 2588; Table VIII; read-out: MBC
# Procedure: as §2
# [31] = tested on: Staph. saprophyticus 2657; test: MBC, standard assay procedures; assay type: cell-based; settings: Staphylococcus saprophyticus; Staph. saprophyticus 2657; Table VIII; read-out: MBC
# Procedure: as §2
# [32] = tested on: Strep. pyogenes (Group A); test: MBC, standard assay procedures; assay type: cell-based; settings: Streptococcus pyogenes; Strep. pyogenes (Group A); Table VIII; read-out: MBC
# Procedure: as §2
# A. parvosata = test: Susceptibility of A. parvosata to antibiotic disks; assay type: cell-based, Actinomadura parvosata; settings: BBL susceptibility disks on nutrient agar; rifampin 5 ug, penicillin 10 U; 1 week at 28°C
# Procedure: Susceptibility of A. parvosata to antibiotics was examined by placing BBL susceptibility disks on nutrient agar plates seeded with A. parvosata. Plates were placed at 4°C for 1 hour to permit diffusion of the antibiotics. Diameters of the zones of inhibition were measured after incubation for 1 week at 28°C.
molecule,measurement,setting,value
CN(C)C1C(=O)NC2Cc3ccc(cc3)Oc3cc4cc(c3O)Oc3ccc(cc3Cl)C(O)C3NC(=O)C(NC(=O)C4NC(=O)C(NC2=O)c2cc(cc(O)c2Cl)Oc2cc1ccc2O)c1ccc(O)c(c1)-c1c(O)cc(O)cc1C(C(=O)O)NC3=O (stereo not shown) [Aglycone 2],MIC,Staph. aureus 209P [1],0.4 µg/mL
same,MIC,Staph. aureus 2620 [2],0.8 µg/mL
same,MIC,Staph. aureus 675 [3],0.4 µg/mL
same,MIC,Staph. aureus 910 [4],0.4 µg/mL
same,MIC,Staph. aureus HH127 [5],0.4 µg/mL
same,MIC,Staph. epidermidis 2256 [6],0.8 µg/mL
same,MIC,Staph. epidermidis 2265 [7],0.8 µg/mL
same,MIC,Staph. epidermidis 2479 [8],0.8 µg/mL
same,MIC,Staph. epidermidis 2588 [9],1.6 µg/mL
same,MIC,Staph. haemolyticus 651 [10],6.3 µg/mL
same,MIC,[11],0.8 µg/mL
same,MIC,Strep. faecalis 34358 [12],1.6 µg/mL
same,MIC,Strep. faecalis 657 [13],1.6 µg/mL
same,MIC,[14],1.6 µg/mL
same,MIC,[15],25 µg/mL
same,MIC,Staph. epidermidis 2261 [16],1.6 µg/mL
same,MBC,Staph. aureus 2620 [17],0.8 µg/mL
same,MBC,Staph. aureus 675 [18],0.4 µg/mL
same,MBC,Staph. aureus HH127 [19],0.4 µg/mL
same,MBC,Staph. epidermidis 2265 [20],0.8 µg/mL
same,MBC,Staph. epidermidis 2479 [21],0.8 µg/mL
same,MBC,Staph. haemolyticus 651 [22],6.3 µg/mL
same,MBC,Strep. faecalis 34358 [23],> 50 µg/mL
same,MBC,Strep. faecalis 657 [24],6.3 µg/mL
same,MBC,[25],25 µg/mL
same,MBC,Staph. aureus 209P [26],0.4 µg/mL
same,MBC,Staph. aureus 910 [27],0.4 µg/mL
same,MBC,Staph. epidermidis 2256 [28],0.8 µg/mL
same,MBC,Staph. epidermidis 2261 [29],1.6 µg/mL
same,MBC,Staph. epidermidis 2588 [30],3.1 µg/mL
same,MBC,[31],0.8 µg/mL
same,MBC,[32],0.8 µg/mL
penicillin,susceptibility of A. parvosata to antibiotic disks (zones of inhibition),A. parvosata,resistant
CO[C@H]1/C=C/O[C@@]2(C)Oc3c(C)c(O)c4c(O)c(c(/C=N/N5CCN(C)CC5)c(O)c4c3C2=O)NC(=O)/C(C)=C\C=C\[C@H](C)[C@H](O)[C@@H](C)[C@@H](O)[C@@H](C)[C@H](OC(C)=O)[C@@H]1C [rifampin],susceptibility of A. parvosata to antibiotic disks (zones of inhibition),A. parvosata,resistant
